Assay results: patent US20260109707A1, “HETEROBIFUNCTIONAL COMPOUNDS AND METHODS OF TREATING DISEASE” (Halda Therapeutics OpCo. Inc., priority 2022, published 2026)
Like-named read-outs stand apart in the source and are kept apart here.

Tests used:
[1] = test system: T-Rex 293 cell line SC3 cells lacking increased expression of androgen receptor protein; experiment: Cellular growth inhibition assay, T-Rex 293 SC3 cells without doxycycline (CellTiter-Glo, 72 hours); format: cell-based; details: T-Rex 293 cell line SC3 cells not exposed to doxycycline (lacking increased androgen receptor expression)
Method in brief: (§1)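 Growth inhibition is measured in an inducible AR-expressing T-Rex 293 clone, SC3, cultured with or without 10 ng/mL doxycycline in hormone-depleted medium. Test compounds are applied for 72 hours. GI50 values derive from CellTiter-Glo 2.0 signal fitted by four-parameter regression.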

T47D cells = experiment: Cellular growth inhibition assay for T47D cells (CellTiter-Glo, 72 hours); format: cell-based, human; details: 72 hours treatment
Method in brief: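 Luminescence from CellTiter-Glo 2.0 after 72 h of compound exposure gives the viability signal. Cells grew in insulin-supplemented (0.2 units/mL) DMEM with 10% FBS and were treated one day after seeding at 0.5% DMSO. GI50 values come from four-parameter nonlinear regression.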

VCaP cells = experiment: Cellular growth inhibition assay for VCaP cells (CellTiter-Glo, 72 hours); format: cell-based, human
Method in brief: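 Luminescent viability signal after 72 h of compound exposure gave GI50 values by four-parameter nonlinear regression. Compounds were added in 0.5% DMSO to cells plated 24 h earlier at 5000/well in DMEM containing 10% FBS.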

[2] = test system: T-Rex 293 cell line SC3 cells having increased expression of androgen receptor protein due to exposure to doxycycline; experiment: Cellular growth inhibition assay, T-Rex 293 SC3 cells with doxycycline (CellTiter-Glo, 72 hours); format: cell-based; details: T-Rex 293 SC3 cells with increased androgen receptor expression due to doxycycline (10 ng/mL)
Method in brief: as §1

| SMILES | GI50 ([1]; 72 h) [nM] | GI50 (T47D cells; Homo sapiens, T47D, 72 h) [nM] | GI50 (VCaP cells; Homo sapiens, VCaP, 72 h) [nM] | GI50 ([2]; 72 h) [nM] | GI50 [1] [nM] | GI50 (T47D cells) [nM] | GI50 (VCaP cells) [nM] | GI50 [2] [nM] |
| --- | --- | --- | --- | --- | --- | --- | --- | --- |
| Cc1sc2c(c1C)C(c1ccc(C[C@@H]3CC[C@@]4(CCCN(c5ccc(C(=O)N[C@H]6CC[C@H](Oc7ccc(C#N)c(Cl)c7)CC6)nn5)C4)C3)cc1)=N[C@@H](Cc1ncco1)c1nnc(C)n1-2 [I-125] | < 500 | < 500 | < 500 | < 500 | – | – | – | – |
| CC1=NN=C2C1c1sc(C)c(C)c1C(c1ccc(C#CC3C4CN(c5ccc(C(=O)N[C@H]6CC[C@H](Oc7ccc(C#N)c(Cl)c7)CC6)nn5)CC34)cc1)=N[C@H]2Cc1ncco1 (some centres unmarked) [I-407] | > 3000 | > 3000 | < 500 | > 3000 | – | – | – | – |
| Cc1sc2c(c1C)C(c1ccc(CCC3CCC4CN(c5ccc(C(=O)N[C@H]6CC[C@H](Oc7ccc(C#N)c(Cl)c7)CC6)nn5)CCN4C3)cc1)=NC(Cc1ncco1)c1nnc(C)n1-2 (some centres unmarked) [I-403] | – | – | – | – | < 500 | < 500 | < 500 | < 500 |
| Cc1sc2c(c1C)C(c1ccc(O[C@@H]3CC[C@]4(CCCN(c5ccc(C(=O)N[C@H]6CC[C@H](Oc7ccc(C#N)c(Cl)c7)CC6)nn5)C4)C3)nc1)=N[C@@H](Cc1ncco1)c1nnc(C)n1-2 [I-286] | – | – | – | – | > 3000 | 500 to 1500 | < 500 | < 500 |
| Cc1sc2c(c1C)C(c1ccc(OC3CC4(CCN(c5ccc(C(=O)N[C@H]6CC[C@H](Oc7ccc(C#N)c(Cl)c7)CC6)nn5)CC4)C3)cc1)=NC(Cc1ncco1)c1nnc(C)n1-2 (some centres unmarked) [I-77] | 500 to 1500 | 1500 to 3000 | < 500 | < 500 | – | – | – | – |
| CCNC(=O)C[C@@H]1N=C(c2ccc(N3CCC(N(C)C4CCN(c5ccc(C(=O)N[C@H]6CC[C@H](Oc7ccc(C#N)c(Cl)c7)CC6)nn5)CC4)CC3)cc2)c2c(sc(C)c2C)-n2c(C)nnc21 [I-43] | 1500 to 3000 | 500 to 1500 | < 500 | < 500 | – | – | – | – |
| Cc1sc2c(c1C)C(c1ccc(N3CCC[C@H](C(=O)N4CCC[C@H](c5ccc(C(=O)N[C@H]6CC[C@H](Oc7ccc(C#N)c(Cl)c7)CC6)nn5)C4)C3)cc1)=N[C@H](Cc1ncco1)c1nnc(C)n1-2 [I-303] | > 3000 | > 3000 | > 3000 | > 3000 | – | – | – | – |
| CC1=NN=C2C1c1sc(C)c(C)c1C(c1ccc(C#CC3C4CN(c5ccc(C(=O)N[C@H]6CC[C@H](Oc7ccc(C#N)c(Cl)c7)CC6)nn5)CC34)cc1)=N[C@@H]2Cc1ncco1 (some centres unmarked) [I-408] | < 500 | < 500 | < 500 | < 500 | – | – | – | – |
| CC1=NN=C2C1c1sc(C)c(C)c1C(c1ccc(C3CCC4(CC3)CCN(c3ccc(C(=O)N[C@H]5CC[C@H](Oc6ccc(C#N)c(Cl)c6)CC5)nn3)CC4)cc1)=N[C@H]2Cc1ncco1 (some centres unmarked) [I-409] | > 3000 | > 3000 | > 3000 | > 3000 | – | – | – | – |
| Cc1sc2c(c1C)C(c1ccc(C[C@H]3CC[C@]4(C3)CN(c3ccc(C(=O)N[C@H]5CC[C@H](Oc6ccc(C#N)c(Cl)c6)CC5)nn3)CCO4)cc1)=N[C@@H](Cc1ncco1)c1nnc(C)n1-2 [I-266] | < 500 | < 500 | < 500 | < 500 | – | – | – | – |
| Cc1sc2c(c1C)C(c1ccc(N3CCC4(CC3)CCN(c3ccc(C(=O)N[C@H]5CC[C@H](Oc6ccc(C#N)c(Cl)c6)CC5)nn3)C4)cc1)=NCc1nnc(C)n1-2 [I-400] | 500 to 1500 | > 3000 | 1500 to 3000 | < 500 | – | – | – | – |
| Cc1sc2c(c1C)C(c1ccc(OCC[C@@H]3CCCN(c4ccc(C(=O)N[C@H]5CC[C@H](Oc6ccc(C#N)c(Cl)c6)CC5)nn4)C3)cc1)=N[C@@H](Cc1ncco1)c1nnc(C)n1-2 [I-256] | < 500 | < 500 | < 500 | < 500 | – | – | – | – |
| Cc1sc2c(c1C)C(c1ccc(OCCC3CCN(c4ccc(C(=O)N[C@H]5CC[C@H](Oc6ccc(C#N)c(Cl)c6)CC5)nn4)CC3)cc1)=NC(Cc1ncco1)c1nnc(C)n1-2 (some centres unmarked) [I-78] | < 500 | < 500 | < 500 | < 500 | – | – | – | – |
| Cc1sc2c(c1C)C(c1ccc(CC[C@H]3C[C@@]4(CCCN(c5ccc(C(=O)N[C@H]6CC[C@H](Oc7ccc(C#N)c(Cl)c7)CC6)nn5)C4)C3)cc1)=N[C@@H](C)c1nnc(C)n1-2 [I-326] | – | – | – | – | > 3000 | < 500 | < 500 | < 500 |
| Cc1sc2c(c1C)C(c1ccc(OC[C@H]3C[C@]4(CCCN(c5ccc(C(=O)N[C@H]6CC[C@H](Oc7ccc(C#N)c(Cl)c7)CC6)nn5)C4)C3)cn1)=N[C@@H](Cc1ncco1)c1nnc(C)n1-2 [I-339] | < 500 | < 500 | < 500 | < 500 | – | – | – | – |
| Cc1sc2c(c1C)C(c1ccc(OC3CC4(CCN(c5ncc(C(=O)N[C@H]6CC[C@H](Oc7ccc(C#N)c(Cl)c7)CC6)cn5)CC4)C3)cc1)=N[C@@H](Cc1ncco1)c1nnc(C)n1-2 [I-84] | < 500 | < 500 | < 500 | < 500 | – | – | – | – |
| Cc1sc2c(c1C)C(c1ccc(CN(C)C(=O)[C@@H]3CC[C@H](c4ccc(C(=O)N[C@H]5CC[C@H](Oc6ccc(C#N)c(Cl)c6)CC5)nn4)C3)cc1)=N[C@@H](Cc1ncco1)c1nnc(C)n1-2 [I-315] | > 3000 | 500 to 1500 | < 500 | < 500 | – | – | – | – |
| Cc1sc2c(c1C)C(c1ccc(C(=O)N3CCN(Cc4ccc(C(=O)N[C@H]5CC[C@H](Oc6ccc(C#N)c(Cl)c6)CC5)nn4)CC3)cc1)=N[C@@H](Cc1ncco1)c1nnc(C)n1-2 [I-290] | > 3000 | > 3000 | > 3000 | > 3000 | – | – | – | – |
| Cc1sc2c(c1C)C(c1ccc([C@H]3C[C@H]([C@H]4CCCN(c5ccc(C(=O)N[C@H]6CC[C@H](Oc7ccc(C#N)c(Cl)c7)CC6)nn5)C4)C3)cc1)=N[C@@H](Cc1ncco1)c1nnc(C)n1-2 [I-375] | > 3000 | > 3000 | < 500 | < 500 | – | – | – | – |
| CCNC(=O)C[C@@H]1N=C(c2ccc(OC3CC(OC4CCN(c5ccc(C(=O)N[C@H]6CC[C@H](Oc7ccc(C#N)c(Cl)c7)CC6)nn5)CC4)C3)cc2)c2c(sc(C)c2C)-n2c(C)nnc21 (some centres unmarked) [I-37] | < 500 | < 500 | < 500 | < 500 | – | – | – | – |
| Cc1sc2c(c1C)C(c1ccc(OC[C@H]3CC[C@@]4(CCCN(c5ccc(C(=O)N[C@H]6CC[C@H](Oc7ccc(C#N)c(Cl)c7)CC6)nn5)C4)C3)nc1)=N[C@@H](Cc1ncco1)c1nnc(C)n1-2 [I-328] | < 500 | 500 to 1500 | < 500 | < 500 | – | – | – | – |
| Cc1sc2c(c1C)C(c1ccc([C@H]3C[C@@H](C4CCN(c5ccc(C(=O)N[C@H]6CC[C@H](Oc7ccc(C#N)c(Cl)c7)CC6)nn5)CC4)C3)cc1)=N[C@@H](Cc1ncco1)c1nnc(C)n1-2 [I-371] | > 3000 | > 3000 | > 3000 | > 3000 | – | – | – | – |
| Cc1sc2c(c1C)C(c1ccc(O[C@H]3C[C@]4(CCCN(c5ccc(C(=O)N[C@H]6CC[C@H](Oc7ccc(C#N)c(Cl)c7)CC6)nn5)C4)C3)cc1)=N[C@@H](Cc1ncco1)c1nnc(C)n1-2 [I-93] | < 500 | 500 to 1500 | < 500 | < 500 | – | – | – | – |
| CCNC(=O)C[C@@H]1N=C(c2ccc(N3CCC(CN4CCN(c5ccc(C(=O)N[C@H]6CC[C@H](Oc7ccc(C#N)c(Cl)c7)CC6)nn5)CC4)CC3)cc2)c2c(sc(C)c2C)-n2c(C)nnc21 [I-36] | 500 to 1500 | 500 to 1500 | < 500 | < 500 | – | – | – | – |
| Cc1sc2c(c1C)C(c1ccc(CC3CN([C@H]4CCN(c5ccc(C(=O)N[C@H]6CC[C@H](Oc7ccc(C#N)c(Cl)c7)CC6)nn5)C4)C3)cc1)=N[C@@H](Cc1ncco1)c1nnc(C)n1-2 [I-116] | < 500 | < 500 | < 500 | < 500 | – | – | – | – |
| Cc1sc2c(c1C)C(c1ccc(C#CC3CC4(C3)CN(c3ccc(C(=O)N[C@H]5CC[C@H](Oc6ccc(C#N)c(Cl)c6)CC5)nn3)C4)cc1)=N[C@H](Cc1ncco1)c1nnc(C)n1-2 [I-227] | > 3000 | > 3000 | < 500 | < 500 | – | – | – | – |
| Cc1sc2c(c1C)C(c1ccc(COC3(C)CC4(CN(c5ccc(C(=O)N[C@H]6CC[C@H](Oc7ccc(C#N)c(Cl)c7)CC6)nn5)C4)C3)cc1)=N[C@@H](Cc1ncco1)c1nnc(C)n1-2 [I-441] | < 500 | < 500 | < 500 | < 500 | – | – | – | – |
| Cc1sc2c(c1C)C(c1ccc(CN3CCO[C@@H](CNc4ccc(C(=O)N[C@H]5CC[C@H](Oc6ccc(C#N)c(Cl)c6)CC5)nn4)C3)cc1)=N[C@@H](Cc1ncco1)c1nnc(C)n1-2 [I-298] | < 500 | < 500 | < 500 | < 500 | – | – | – | – |
| CCNC(=O)C[C@@H]1N=C(c2ccc(CN3CC4CN(c5ccc(C(=O)N[C@H]6CC[C@H](Oc7ccc(C#N)c(Cl)c7)CC6)nn5)CC4C3)cc2)c2c(sc(C)c2C)-n2c(C)nnc21 (some centres unmarked) [I-32] | 1500 to 3000 | 500 to 1500 | < 500 | < 500 | – | – | – | – |
